Data on 4 compounds can be found in paper PMC4748415, “Impact of different cell penetrating peptides on the efficacy of antisense therapeutics for targeting intracellular pathogens” (Scientific Reports, 2016).

Data set [1] deals with mitochondrial biogenesis in J774A.1 cells. Nature of the data set: Mitobiogenesis assay (In-Cell ELISA, COX-I/SDH-A). Conditions: three days, tested at 0.1, 1, 10 and 20 μM, COX-I/SDH-A ratio.
Experimental: To measure the effect of PNA on the mitochondrial biogenesis, In-Cell ELISA Kit (MitoSciences Inc., Eugene, OR, USA) was used as per the manufacturer’s instructions[54][55]. Briefly, J774A.1 cells were seeded (approximately 40,000 cells per well) in 96-well plates and allowed to adhere. […] Cells were allowed to grow for approximately 3 days. Media were removed and cells were washed with PBS, then fixed with 4% paraformaldehyde. After fixing, cells were washed with PBS and permeabilization and blocking processes were done according to the manufacturer’s instructions. Primary antibodies to detect the levels of two proteins (subunit I of Complex IV (COX-I), that is mitochondrial DNA (mtDNA)-encoded), and the 70 kDa subunit of Complex II (SDH-A), a nuclear DNA (nDNA)-encoded were added and incubated for overnight at 4 °C. After incubation, cells were washed with PBS and secondary antibodies were added and incubated at room temperature for one hour. After washing, the expression of SDH-A and COX-1 were measured at 405 nm and 600 nm wavelength, respectively. The ratio between COX-I and SDH-A was calculated and the percent of inhibition of mitochondrial biogenesis was determined.
For data set [2], the system named is L. monocytogenes J0161 in infected C. elegans. Nature of the data set: C. elegans infection model. The following applies: 18 hours treatment; for Log CFUs/worm: 10 worms in triplicates; for Log CFUs reduction: versus water.
Experimental: To test the efficacy of PNA in vivo we used Listeria-infected C. elegans. The temperature-sensitive sterile mutant strain C. elegans AU37 [sek-1(km4); glp-4(bn2) I] was used for this study. This strain is sterile at room temperature and can lay eggs only at 15 °C. Furthermore, mutation in the sek-1 gene of the p38 mitogen-activated protein kinase pathway (p38 MAPK pathway), makes this particular C. elegans strain more susceptible to Listeria infection[49][56]. Initially, the pathogenicity of three strains of Listeria (F4244, J0161 and ATCC19111) was tested in C. elegans as described before[24] to determine the most virulent strain to use for this study. […] Briefly, adult worms were grown for 5 days, at 15 °C (temperature that permits worms to lay eggs) on NGM agar plates seeded with a lawn of E. coli OP50. The eggs were harvested by bleaching[57] and maintained for 24 hours at room temperature with gentle agitation for hatching. Hatched larvae were transferred to a new NGM plate seeded with E. coli OP50 and were kept at room temperature for five days until worms reached the adult stage of growth. Adult worms were collected and washed three times with M9 media in a 1:10 ratio to remove E. coli before transfer to LB agar plates seeded with a lawn of L. monocytogenes J0161 for infection. After eight hours of infection, worms were collected and washed with M9 buffer five times before incubation with PNAs. Worms were transferred to low-binding microcentrifuge tubes (10 worms per tube). […] After treatment for 18 hours, worms were washed five times with M9 buffer. […] Samples were serially diluted and plated onto TSA plates containing 5 μg/ml nalidixic acid to select for Listeria.
The subject of data set [3] is clinical isolates of L. monocytogenes. The class given is cell-based, Listeria monocytogenes. The following applies: for MIC: broth microdilution in low binding tubes, triplicates, 16 hour incubation. As for the experimental part: (§1) The MICs of conjugated PNAs, free PNA, CPPs and untreated control against L. monocytogenes were determined using the broth microdilution method according to the Clinical and Laboratory Standards Institute (CLSI) guidelines with the following modifications. Briefly, low binding clear microcentrifuge tubes (USA scientific, Inc. Ocala, FL) were used in triplicates for each reaction instead of traditional 96-well plates. […] After a 16 hour incubation period (of test agent with bacteria), the number of viable bacteria was enumerated by serial dilution and counting on TSA plates. The MICs were repeated at least twice.

For data set [4], the system named is L. monocytogenes F4244 inside infected J774A.1 cells. It counts as cell-based. The following applies: 4 hours; for Log CFU/ml: intracellular F4244 in J774A.1; for Log CFU reduction: intracellular F4244 in J774A.1, versus control.
Data set [5] relates to L. monocytogenes F4244. Put plainly: Time kill assay. It counts as cell-based, Listeria monocytogenes. Conditions: 8 μM PNA, 37 °C, samples every 20 minutes, inoculum 2.4 × 10^5 CFU/ml.
The test system of data set [6] is L. monocytogenes F4244. Nature of the data set: Concentration-dependent bacterial log reduction in pure culture. It counts as cell-based, Listeria monocytogenes. The following applies: for Log CFU/ml: pure culture F4244, 16 hour incubation; for Log CFU reduction: relative to control, pure culture F4244. As for the experimental part: as §1
Data set [7] has as its system L. monocytogenes F4244. Nature of the data set: Time kill assay. The class given is cell-based, Listeria monocytogenes. The following applies: 12 hours. As for the experimental part: L. monocytogenes F4244 in logarithmic growth phase was diluted to ~10^5 CFU/ml and incubated with 32 μM of the five PNAs (in triplicates) at 37 °C for 12 hours. Samples were collected every two hours, serially diluted, and plated onto TSA plates. Plates were then incubated wat 37 °C for 24 hours before viable CFUs were determined.
Samples were collected every 20 minutes and processed as above.

For data set [8], the system named is cytoplasmic membrane of L. monocytogenes F4244. Put plainly: Calcein leakage assay. Conditions: 30 min exposure; PRXR 8 × MIC (8 μM), nisin 5 × MIC (10 μg/ml); fluorescence, n = 3. The class given is cell-based, Listeria monocytogenes. As for the experimental part:
To investigate the effect of PNA on the integrity of the Listeria cell membrane, the leakage of the preloaded fluorescent dye, calcein, was monitored and quantified as described before with a few modifications. Briefly, 20 ml of logarithmic growth phase (OD600 = 1.0, ~10^9 CFU/ml) L. monocytogenes F4244 was centrifuged and bacteria were resuspended in 9 ml of sterile PBS plus 1 ml of BHI. 3 μM of calcein AM dye was added to the bacterial suspension prior to covering the suspension with aluminum foil and incubating for one hour at 37 °C. After 10 minutes centrifugation at 3,000 × g, the supernatant was discarded. The calcein-loaded bacterial cells were resuspended in 30 ml of sterile PBS and 100 μL calcein-loaded bacteria were distributed in a 96-well microtiter plate (in triplicate). PRXR was added in a concentration equal to 8 × MIC (8 μM). Nisin 5 × MIC (10 μg/ml) and sterile water were used as positive and negative controls, respectively. Intensity of fluorescence (calcein leakage) was detected every 5 minutes for 30 minutes using a fluorescence plate reader (FLx800 model BioTek® Instruments, Inc. Winooski, Vermont) with the excitation and emission filters adjusted to 485 nm and 520 nm, respectively.

“Also recorded” adds a separate entry of the source. Read-outs that look alike come from different tables or passages of the source. Marks after values point to notes of the source that are not given here.

Regarding `CC(=O)NC[C@H]1CN(c2ccc(N3CCOCC3)c(F)c2)C(=O)O1` [Linezolid, linezolid], the “inhibition of mitochondrial protein synthesis (mitobiogenesis)” value in data set [1] was 65%.
On the same count and under the same terms, for `CC1(C)S[C@@H]2[C@H](NC(=O)[C@H](N)c3ccccc3)C(=O)N2[C@H]1C(=O)O` [ampicillin] the value was “does not significantly inhibit mitobiogenesis”.
Regarding “RFRRFRRFRRFRXB-O-cgatcattcaaa-NH2 [PRFR, anti-rpoA PNA covalently conjugated to the (RFR)4XB CPP]”, the “Log CFUs/worm” value in data set [2] (16 µM) was found to be 2.85±0.60 Log CFUs/worm; in data set [2] (32 µM), 1.86±0.26 Log CFUs/worm. Moreover, the “Log CFUs reduction” value in data set [2] (16 µM) is given as 1.3 Log CFUs; in data set [2] (32 µM) it was 2.52 Log CFUs. The same compound showed an MIC50 in data set [3] (concentration required to inhibit 50% of L. monocytogenes isolates (six isolates)) of 4 µM. Besides, the MIC in data set [3] (strain ATCC 13932) was found to be 4 µM; in data set [3] (strain ATCC 19111), 8 µM; in data set [3] (strain ATCC 19112), 4 µM; in data set [3] (strain ATCC 19114) it was 1 µM; in data set [3] (strain F4244, no turbidity), 2 µM; in data set [3] (strain J0161), 16 µM. Besides, the “Log CFU/ml” value in data set [4] (2 μM) worked out at 5.89 ± 0.65 Log CFU/ml; in data set [4] (4 μM), 5.10 ± 0.28 Log CFU/ml; in data set [4] (8 μM), 4.29 ± 0.04 Log CFU/ml; in data set [6] (1 µM PNA), 9.26±0.09 Log CFU/ml; in data set [6] (2 µM PNA) it was 7.48±0.69 Log CFU/ml; in data set [6] (4 µM PNA), 6.10±0.63 Log CFU/ml. The “Log CFU/ml” value in data set [6] (8 µM PNA) is “bacterial clearance; also recorded: Cleared”; in data set [6] (16 µM PNA), “Cleared”; in data set [6] (32 µM PNA), “Cleared”. Moreover, the “Log CFU reduction” value was 0.84 Log CFU in data set [4] (2 μM); 1.63* Log CFU in data set [4] (4 μM); 2.43* Log CFU in data set [4] (8 μM); 0.13 Log CFU in data set [6] (1 µM PNA); 1.91 Log CFU in data set [6] (2 µM PNA); 3.29 Log CFU in data set [6] (4 µM PNA). For the same compound, the “Log CFU reduction” value in data set [6] (8 µM PNA), in data set [6] (16 µM PNA) and in data set [6] (32 µM PNA) was 9.39 Log CFU in each case. In addition, in data set [5], the “time to complete elimination of starting inoculum” value was at most 20 min. In addition, in data set [7] (32 μM PNA, 37 °C, samples every 2 hours, ~10^5 CFU/ml), the “time to complete eradication of Listeria” value was at most 2 h. Also, the “bactericidal or bacteriostatic activity” value in data set [7] (L. monocytogenes, time kill at 32 μM) is recorded as “bactericidal activity”.
For nisin [reference compound], in data set [8], the calcein leakage entry is reported as “more than 72%”.
